Experiments:
[1] = target: T1, human recombinant kinase full-length AKT1 E17K (Homo sapiens, UniProt P31749, E17K); assay: AKT1 E17K kinase assay (TR-FRET, Lance); assay type: biochemical; conditions: 0.6 nM AKT1 E17K, 50 nM Ulight-CREBtide, either 50 μM ATP or 2 mM ATP, 60 min at RT
T1 construct: Purified human recombinant kinase full-length AKT1 E17K was expressed in insect cells; made in house; host or cells: insect cells
Summary of the method: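 IC50 came from a 10-point, 4-parameter fit of the 665/620 TR-FRET ratio read with Eu-anti-phospho-CREB (Ser133). Reaction at RT for 60 min after 15 min compound preincubation, using 0.6 nM PDPK1-activated full-length AKT1 E17K (insect-cell), 50 nM Ulight-CREBtide, ATP at 50 μM or 2 mM, HEPES pH 7.5, 1% DMSO.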

[2] = target: T2, human recombinant kinase full-length wildtype AKT1 (Homo sapiens, UniProt P31749); assay: AKT1 kinase assay (wildtype, TR-FRET, Lance); assay type: biochemical; conditions: 0.6 nM wildtype AKT1, 50 nM Ulight-CREBtide, either 50 μM ATP or 2 mM ATP, 60 min at RT
T2 construct: Purified human recombinant kinase full-length wildtype AKT1 was expressed in insect cells; made in house; host or cells: insect cells
Summary of the method: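 TR-FRET 665/620 ratio quantified phospho-CREBtide formed by PDPK1-activated full-length human AKT1 (0.6 nM, insect-cell-derived) over 60 min at RT with 50 nM ULight-CREBtide and either 50 μM or 2 mM ATP. Compounds were preincubated 15 min with enzyme; IC50 came from 4-parameter fits of 10-point duplicates.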

T1 sequence (P31749 whole entry E17K): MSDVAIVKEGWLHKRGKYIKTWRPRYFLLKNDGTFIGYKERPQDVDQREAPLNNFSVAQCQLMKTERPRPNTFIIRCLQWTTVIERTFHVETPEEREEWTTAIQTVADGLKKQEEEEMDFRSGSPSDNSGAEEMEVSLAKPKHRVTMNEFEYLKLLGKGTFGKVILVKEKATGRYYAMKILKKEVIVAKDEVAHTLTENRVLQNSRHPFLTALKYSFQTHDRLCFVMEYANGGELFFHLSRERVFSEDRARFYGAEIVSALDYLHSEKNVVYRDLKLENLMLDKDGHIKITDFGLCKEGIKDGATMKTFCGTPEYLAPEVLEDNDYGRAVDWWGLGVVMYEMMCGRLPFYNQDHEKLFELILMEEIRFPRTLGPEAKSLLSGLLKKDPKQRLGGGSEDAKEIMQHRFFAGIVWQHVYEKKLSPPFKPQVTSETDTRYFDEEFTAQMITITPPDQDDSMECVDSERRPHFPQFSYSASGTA
T2 sequence (P31749 whole entry): as the sequence (P31749 whole entry E17K) above, with K17E counted along it

Row | SMILES | IC50 [1] | IC50 [2]
1 | C[C@@H]1C[C@H](N(C)Cc2ccc(-n3c(-c4cccnc4N)nc4ccc(-c5ccccc5)nc43)c(F)c2)C[C@H](C)[C@H]1C(=O)O [Compound I-160] | 500 to 2000 nM | < 20000 nM
2 | CN(Cc1ccc(-n2c(-c3cccnc3N)nc3ccc(-c4ccccc4)nc32)c(F)c1)C12CCC(C(=O)O)(CC1)CC2 [Compound I-161] | < 500 nM | < 20000 nM
3 | CCN(Cc1ccc(-n2c(-c3cccnc3N)nc3ccc(-c4ccccc4)nc32)c(F)c1)[C@H]1CC[C@@H](C(=O)O)CC1 [Compound I-162] | ≥ 2000 nM | < 20000 nM
4 | CN(Cc1ccc(-n2c(-c3cccnc3N)nc3ccc(-c4ccccc4)nc32)c(F)c1)[C@H]1CC[C@H](C(=O)O)CC1 [Compound I-164] | 500 to 2000 nM | < 20000 nM
5 | CN(Cc1ccc(-n2c(-c3cccnc3N)nc3ccc(-c4ccccc4)nc32)c(F)c1)[C@H]1CC[C@@H](C(=O)O)CC1 [Compound I-165] | < 500 nM | < 20000 nM
6 | CC(C)CN(Cc1ccc(-n2c(-c3cccnc3N)nc3ccc(-c4ccccc4)nc32)cc1)[C@H]1CC[C@H](C(=O)O)CC1 [Compound I-166] | ≥ 2000 nM | < 20000 nM
7 | CCN(Cc1ccc(-n2c(-c3cccnc3N)nc3ccc(-c4ccccc4)nc32)cc1)[C@H]1CC[C@H](C(=O)O)CC1 [Compound I-167] | 500 to 2000 nM | < 20000 nM
8 | CC(C)N(Cc1ccc(-n2c(-c3cccnc3N)nc3ccc(-c4ccccc4)nc32)cc1)[C@H]1CC[C@H](C(=O)O)CC1 [Compound I-168] | ≥ 2000 nM | < 20000 nM
9 | CN(Cc1ccc(-n2c(-c3cccnc3N)nc3ccc(-c4ccccc4)nc32)cc1)[C@H]1CC[C@H](CC(=O)O)CC1 [Compound I-169] | < 500 nM | < 20000 nM
10 | CN(Cc1ccc(-n2c(-c3cccnc3N)nc3ccc(-c4ccccc4)nc32)cc1)[C@@H]1CC[C@@H](C(=O)O)C1 [Compound I-170] | < 500 nM | < 20000 nM
11 | CN(Cc1ccc(-n2c(-c3cccnc3N)nc3ccc(-c4ccccc4)nc32)cc1)C1CC[C@@H](C(=O)O)C1 (stereo partly drawn) [Compound I-173] | 500 to 2000 nM | < 20000 nM
12 | CC(c1ccc(-n2c(-c3cccnc3N)nc3ccc(-c4ccccc4)nc32)cc1)N(C)[C@H]1CC[C@H](C(=O)O)CC1 (stereo partly drawn) [Compound I-176] | 500 to 2000 nM | < 20000 nM
13 | Cc1nc(CN(C)[C@H]2CC[C@H](C(=O)O)CC2)ccc1-n1c(-c2cccnc2N)nc2ccc(-c3ccccc3)nc21 [Compound I-183] | ≥ 2000 nM | < 20000 nM
14 | Cc1nc(CN(C)[C@H]2CC[C@@H](C(=O)O)CC2)ccc1-n1c(-c2cccnc2N)nc2ccc(-c3ccccc3)nc21 [Compound I-184] | 500 to 2000 nM | < 20000 nM
15 | CC(C)(C(=O)O)C1CCN(Cc2ccc(-n3c(-c4cccnc4N)nc4ccc(-c5ccccc5)nc43)c(F)c2)C1 (stereo not drawn) [Compound I-185] | 500 to 2000 nM | < 20000 nM
16 | CNC(=O)[C@H]1CC[C@H](N(C)Cc2ccc(-n3c(-c4cccnc4N)nc4ccc(-c5ccccc5)nc43)cc2)CC1 [Compound I-186, trans-4-((4-(2-(2-aminopyridin-3-yl)-5-phenyl-3H-imidazo[4,5-b]pyridin-3-yl)benzyl)(methyl)amino)-N-methylcyclohexane-1-carboxamide] | ≥ 2000 nM | < 20000 nM
17 | Nc1ncccc1-c1nc2ccc(-c3ccccc3)nc2n1-c1ccc(C2CCN(C[C@H]3CC[C@H](C(=O)O)CC3)CC2)cc1 [Compound I-190] | 500 to 2000 nM | < 20000 nM
18 | CC1(C)CC(C(=O)O)CCC1CN1CCC(c2ccc(-n3c(-c4cccnc4N)nc4ccc(-c5ccccc5)nc43)cc2)CC1 (stereo not drawn) [Compound I-194] | 500 to 2000 nM | < 20000 nM
19 | CC1(C)C[C@H](CN2CCC(c3ccc(-n4c(-c5cccnc5N)nc5ccc(-c6ccccc6)nc54)cc3)CC2)CC(C)(C)[C@@H]1C(=O)O [Compound I-197] | ≥ 2000 nM | < 20000 nM
20 | Nc1ncccc1-c1nc2ccc(-c3ccccc3)nc2n1-c1ccc(C2CCN(C(=O)[C@H]3CC[C@H](C(=O)O)CC3)CC2)cc1 [Compound I-198] | < 500 nM | < 20000 nM
21 | Cc1cc(C2CN(CC3CC4CC(C(=O)O)CC4C3)C2)ccc1-n1c(-c2cccnc2N)nc2ccc(-c3ccccc3F)nc21 (stereo not drawn) [Compound I-201] | < 500 nM | < 20000 nM

Continued, values first:

Row | IC50 [1] | IC50 [2] | SMILES
22 | ≥ 2000 nM | < 20000 nM | CCN(Cc1ccc(-n2c(-c3cccnc3N)nc3ccc(-c4ccccc4)nc32)c(F)c1)[C@H]1CC[C@H](C(=O)O)CC1 [Compound I-163]
23 | < 500 nM | < 20000 nM | CN(Cc1ccc(-n2c(-c3cccnc3N)nc3ccc(-c4ccccc4)nc32)cc1)C1CC[C@H](C(=O)O)C1 (stereo partly drawn) [Compound I-172]
24 | 500 to 2000 nM | < 20000 nM | CC(c1ccc(-n2c(-c3cccnc3N)nc3ccc(-c4ccccc4)nc32)cc1)N(C)[C@H]1CC[C@@H](C(=O)O)CC1 (stereo partly drawn) [Compound I-177]
25 | ≥ 2000 nM | < 20000 nM | Cc1cc(CN(C)[C@H]2CC[C@H](C(=O)O)CC2)ccc1-n1c(-c2cccnc2N)nc2ccc(-c3ccccc3)nc21 [Compound I-178]
26 | 500 to 2000 nM | < 20000 nM | Cc1cc(CN(C)[C@H]2CC[C@@H](C(=O)O)CC2)ccc1-n1c(-c2cccnc2N)nc2ccc(-c3ccccc3)nc21 [Compound I-179]
27 | ≥ 2000 nM | < 20000 nM | Cc1cc(CN2CCC(C(C)(C)C(=O)O)C2)ccc1-n1c(-c2cccnc2N)nc2ccc(-c3ccccc3)nc21 (stereo not drawn) [Compound I-180]
28 | 500 to 2000 nM | < 20000 nM | NC(=O)N1CCC(CCc2ccc(-n3c(-c4cccnc4N)nc4ccc(-c5ccccc5)nc43)cc2F)CC1 [Compound I-181]
29 | < 500 nM | < 20000 nM | Cc1nc(NC(=O)N2CCC(C(=O)O)CC2)ccc1-n1c(-c2cccnc2N)nc2ccc(-c3ccccc3)nc21 [Compound I-182]
30 | ≥ 2000 nM | < 20000 nM | CN(Cc1ccc(-n2c(-c3cccnc3N)nc3ccc(-c4ccccc4)nc32)cc1)[C@H]1CC[C@H](C(N)=O)CC1 [Compound I-187, trans-4-((4-(2-(2-aminopyridin-3-yl)-5-phenyl-3H-imidazo[4,5-b]pyridin-3-yl)benzyl)(methyl)amino)cyclohexane-1-carboxamide]
31 | ≥ 2000 nM | < 20000 nM | CC1(C)CC(CN2CCC(c3ccc(-n4c(-c5cccnc5N)nc5ccc(-c6ccccc6)nc54)cc3)CC2)CCC1C(=O)O (stereo not drawn) [Compound I-193]
32 | 500 to 2000 nM | < 20000 nM | Nc1ncccc1-c1nc2ccc(-c3ccccc3)nc2n1-c1ccc(C2CCN(CC34CCC(C(=O)O)(CC3)CC4)CC2)cc1 [Compound I-195]
33 | ≥ 2000 nM | < 20000 nM | CC1(C)C[C@H](CN2CCC(c3ccc(-n4c(-c5cccnc5N)nc5ccc(-c6ccccc6)nc54)cc3)CC2)CC(C)(C)[C@H]1C(=O)O [Compound I-196]
34 | < 500 nM | < 20000 nM | Nc1ncccc1-c1nc2ccc(-c3ccccc3)nc2n1-c1ccc(C2CCN(C(=O)[C@H]3CC[C@@H](C(=O)O)CC3)CC2)cc1 [Compound I-199]
35 | 500 to 2000 nM | < 20000 nM | Cc1cc(C2CN(CC34CCC(C(=O)O)(CC3)CC4)C2)ccc1-n1c(-c2cccnc2N)nc2ccc(-c3ccccc3F)nc21 [Compound I-200]
36 | < 500 nM | < 20000 nM | Nc1ncccc1-c1nc2ccc(-c3ccccc3F)nc2n1-c1ccc(C2CN(CC3CC4CC(C(=O)O)CC4C3)C2)cc1 (stereo not drawn) [Compound I-202]

Source: US20260200920A1, “SUBSTITUTED AMINOPYRIDINE COMPOUNDS FOR USE AS AKT1 INHIBITORS” (Atavistik Bio, Inc., priority 2023, published 2026)
